Reference: patent US11739098B2 (BRISTOL-MYERS SQUIBB COMPANY, priority 2017, dated 2023)

Assays:
Assay type in all cases: cell-based
human TLR7 = molecular target: T1, human TLR7 (Homo sapiens, UniProt Q9NYK1); experiment: TLR7 inhibition reporter assay (HEK-Blue cells, SEAP reporter, gardiquimod stimulation); conditions: HEK-Blue cells overexpressing human TLR7, SEAP reporter, gardiquimod 7.5 μM
T1 construct: host or cells: HEK-Blue cells (HEK293-derived reporter line)
T1 sequence (Q9NYK1 27-1049): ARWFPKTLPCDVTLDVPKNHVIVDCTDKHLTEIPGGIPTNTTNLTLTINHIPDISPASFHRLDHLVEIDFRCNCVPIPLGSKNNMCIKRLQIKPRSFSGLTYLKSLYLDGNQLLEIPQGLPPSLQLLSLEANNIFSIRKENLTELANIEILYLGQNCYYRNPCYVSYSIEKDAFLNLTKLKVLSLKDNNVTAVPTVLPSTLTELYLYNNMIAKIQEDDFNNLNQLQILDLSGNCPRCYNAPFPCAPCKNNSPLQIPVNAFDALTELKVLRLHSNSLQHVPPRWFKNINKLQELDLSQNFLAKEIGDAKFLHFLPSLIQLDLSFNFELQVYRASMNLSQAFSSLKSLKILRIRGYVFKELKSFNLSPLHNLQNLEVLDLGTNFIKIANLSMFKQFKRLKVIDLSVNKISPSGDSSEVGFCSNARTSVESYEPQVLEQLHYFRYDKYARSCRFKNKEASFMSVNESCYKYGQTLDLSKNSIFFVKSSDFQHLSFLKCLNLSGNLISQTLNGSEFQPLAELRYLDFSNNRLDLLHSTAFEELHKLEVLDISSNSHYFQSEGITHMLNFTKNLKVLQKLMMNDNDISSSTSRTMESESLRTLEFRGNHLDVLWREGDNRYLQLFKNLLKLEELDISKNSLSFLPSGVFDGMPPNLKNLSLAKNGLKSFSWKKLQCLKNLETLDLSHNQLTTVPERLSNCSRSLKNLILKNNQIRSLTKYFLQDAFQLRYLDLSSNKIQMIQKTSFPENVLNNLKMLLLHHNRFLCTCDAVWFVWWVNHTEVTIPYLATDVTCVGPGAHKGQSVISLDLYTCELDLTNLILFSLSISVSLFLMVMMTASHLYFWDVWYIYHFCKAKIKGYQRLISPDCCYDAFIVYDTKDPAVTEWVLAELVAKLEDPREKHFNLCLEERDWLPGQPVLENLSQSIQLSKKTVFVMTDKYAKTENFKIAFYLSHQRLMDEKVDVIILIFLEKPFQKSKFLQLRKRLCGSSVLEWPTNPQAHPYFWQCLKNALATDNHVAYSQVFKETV
Method in brief: (§1)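 HEK-Blue cells overexpressing the receptor, with NF-κB/AP-1-driven SEAP, were pre-treated 30 min at room temperature with compound (0.05 nM–50 μM), then stimulated with gardiquimod 7.5 μM (TLR7), R848 15.9 μM (TLR8) or ODN2006 5 nM (TLR9). SEAP was read after 22 h at 37 °C as percent inhibition.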

human TLR8 = molecular target: T2, human TLR8 (Homo sapiens, UniProt Q9NR97); experiment: TLR8 inhibition reporter assay (HEK-Blue cells, SEAP reporter, R848 stimulation); conditions: HEK-Blue cells overexpressing human TLR8, SEAP reporter, R848 15.9 μM
T2 construct: host or cells: HEK-Blue cells (HEK293-derived reporter line)
T2 sequence (Q9NR97 27-1041): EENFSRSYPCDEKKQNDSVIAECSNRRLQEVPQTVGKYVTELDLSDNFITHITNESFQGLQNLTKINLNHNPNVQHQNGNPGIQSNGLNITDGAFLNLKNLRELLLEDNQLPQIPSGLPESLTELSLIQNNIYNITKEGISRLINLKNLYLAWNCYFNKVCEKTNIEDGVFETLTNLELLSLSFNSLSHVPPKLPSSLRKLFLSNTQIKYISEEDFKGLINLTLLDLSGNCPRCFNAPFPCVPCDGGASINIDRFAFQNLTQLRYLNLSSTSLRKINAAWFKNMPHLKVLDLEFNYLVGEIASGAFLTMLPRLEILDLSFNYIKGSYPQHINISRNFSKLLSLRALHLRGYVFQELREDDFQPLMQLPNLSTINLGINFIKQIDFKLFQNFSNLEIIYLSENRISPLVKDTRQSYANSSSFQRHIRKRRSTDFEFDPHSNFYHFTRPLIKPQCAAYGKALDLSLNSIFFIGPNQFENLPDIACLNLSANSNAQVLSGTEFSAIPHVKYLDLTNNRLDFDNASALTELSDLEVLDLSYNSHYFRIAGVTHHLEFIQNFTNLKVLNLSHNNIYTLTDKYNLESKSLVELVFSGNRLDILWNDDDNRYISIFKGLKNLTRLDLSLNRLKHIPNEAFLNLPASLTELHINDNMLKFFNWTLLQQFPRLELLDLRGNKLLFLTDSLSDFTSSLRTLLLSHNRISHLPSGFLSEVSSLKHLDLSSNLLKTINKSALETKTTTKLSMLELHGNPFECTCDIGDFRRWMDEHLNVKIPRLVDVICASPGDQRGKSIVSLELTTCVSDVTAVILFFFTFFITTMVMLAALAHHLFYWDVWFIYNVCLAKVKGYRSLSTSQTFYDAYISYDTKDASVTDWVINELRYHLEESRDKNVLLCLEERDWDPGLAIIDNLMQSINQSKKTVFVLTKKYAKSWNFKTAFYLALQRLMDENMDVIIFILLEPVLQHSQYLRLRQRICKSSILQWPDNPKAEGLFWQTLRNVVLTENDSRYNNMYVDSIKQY
Method in brief: as §1

human TLR9 = molecular target: T3, human TLR9 (Homo sapiens, UniProt Q9NR96); experiment: TLR9 inhibition reporter assay (HEK-Blue cells, SEAP reporter, ODN2006 stimulation); conditions: HEK-Blue cells overexpressing human TLR9, SEAP reporter, ODN2006 5 nM
T3 construct: host or cells: HEK-Blue cells (HEK293-derived reporter line)
T3 sequence (Q9NR96 26-1032): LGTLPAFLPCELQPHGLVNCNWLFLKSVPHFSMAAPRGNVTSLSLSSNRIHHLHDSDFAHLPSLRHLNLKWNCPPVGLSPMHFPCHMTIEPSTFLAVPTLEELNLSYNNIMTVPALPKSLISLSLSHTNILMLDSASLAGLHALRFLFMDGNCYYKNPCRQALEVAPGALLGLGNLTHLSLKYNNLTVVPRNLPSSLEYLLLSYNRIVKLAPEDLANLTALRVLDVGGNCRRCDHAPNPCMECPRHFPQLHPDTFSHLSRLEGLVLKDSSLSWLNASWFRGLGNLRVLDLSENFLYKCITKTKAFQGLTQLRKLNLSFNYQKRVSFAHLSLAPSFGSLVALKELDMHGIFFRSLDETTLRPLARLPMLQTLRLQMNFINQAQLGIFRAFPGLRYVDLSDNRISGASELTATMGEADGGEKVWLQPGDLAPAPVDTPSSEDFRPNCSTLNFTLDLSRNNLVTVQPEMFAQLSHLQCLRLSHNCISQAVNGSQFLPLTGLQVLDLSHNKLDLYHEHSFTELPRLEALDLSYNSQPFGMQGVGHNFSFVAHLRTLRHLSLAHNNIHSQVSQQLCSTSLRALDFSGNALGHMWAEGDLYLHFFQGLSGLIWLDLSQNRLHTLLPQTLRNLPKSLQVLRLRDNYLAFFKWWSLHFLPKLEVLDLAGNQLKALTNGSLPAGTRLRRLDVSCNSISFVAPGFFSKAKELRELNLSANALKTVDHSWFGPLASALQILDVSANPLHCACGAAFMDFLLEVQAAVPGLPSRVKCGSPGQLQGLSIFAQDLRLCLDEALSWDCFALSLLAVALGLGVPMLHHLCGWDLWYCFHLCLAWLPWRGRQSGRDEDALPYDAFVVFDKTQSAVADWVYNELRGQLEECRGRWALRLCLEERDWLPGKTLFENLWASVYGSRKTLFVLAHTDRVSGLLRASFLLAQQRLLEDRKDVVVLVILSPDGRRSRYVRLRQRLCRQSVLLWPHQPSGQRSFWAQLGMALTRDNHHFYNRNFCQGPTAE
Method in brief: as §1

| IC50 (human TLR7) [nM] | IC50 (human TLR8) [nM] | IC50 (human TLR9) [nM] | SMILES |
| --- | --- | --- | --- |
| 100 to 1000 | 1000 to 50000 | 1000 to 50000 | Cc1nc2cc(-c3[nH]c4ccc(C5CCN(C6COC6)CC5)cc4c3C(C)C)cc(C)c2o1 [Example 709, 5-(3-isopropyl-5-(1-(oxetan-3-yl)piperidin-4-yl)-1H-indol-2-yl)-2,7-dimethylbenzo[d]oxazole] |
| < 100 | < 100 | 100 to 1000 | CNCC(=O)N1CCC(c2ccc3[nH]c(-c4cc(OC)n5ncnc5c4)c(C(C)C)c3c2)CC1 [Example 553, 1-(4-(3-isopropyl-2-(5-methoxy-[1,2,4]triazolo[1,5-a]pyridin-7-yl)-1H-indol-5-yl)piperidin-1-yl)-2-(methylamino)ethan-1-one] |
| 100 to 1000 | < 100 | 1000 to 50000 | Cc1cc(-c2[nH]c3ccc(C4CCNCC4)cc3c2C(C)C)cn2c(C#N)cnc12 [Example 130, 6-(3-isopropyl-5-(piperidin-4-yl)-1H-indol-2-yl)-8-methylimidazo[1,2-a]pyridine-3-carbonitrile] |
| 100 to 1000 | 100 to 1000 | 1000 to 50000 | CC(C)c1c(-c2ccc3cnnn3c2)[nH]c2ccc(C3CCN(Cc4ncn(C)n4)CC3)cc12 [Example 879, 6-(3-isopropyl-5-(1-((1-methyl-1H-1,2,4-triazol-3-yl)methyl)piperidin-4-yl)-1H-indol-2-yl)-[1,2,3]triazolo[1,5-a]pyridine] |
| 1000 to 50000 | 100 to 1000 | 1000 to 50000 | CNCCN1CCC(c2ccc3[nH]c(-c4ccc5c(c4)CCO5)c(C)c3c2)CC1 [Example 669, 2-(4-(2-(2,3-dihydrobenzofuran-5-yl)-3-methyl-1H-indol-5-yl)piperidin-1-yl)-N-methylethan-1-amine] |
| 100 to 1000 | 100 to 1000 | 1000 to 50000 | CC(C)c1c(-c2ccc(Cl)c3[nH]ncc23)[nH]c2ccc(C3CCN(C(=O)CN(C)C)CC3)cc12 [Example 556, 1-(4-(2-(7-chloro-1H-indazol-4-yl)-3-isopropyl-1H-indol-5-yl)piperidin-1-yl)-2-(dimethylamino)ethan-1-one] |
| < 100 | < 100 | 1000 to 50000 | Cc1c(-c2[nH]c3ccc(C4CCNCC4)cc3c2C(C)C)cn2nnnc2c1C [Example 73, 6-(3-isopropyl-5-(piperidin-4-yl)-1H-indol-2-yl)-7,8-dimethyltetrazolo[1,5-a]pyridine] |

Further lines, the molecule ahead of its results:

| SMILES | IC50 (human TLR7) [nM] | IC50 (human TLR8) [nM] | IC50 (human TLR9) [nM] |
| --- | --- | --- | --- |
| CCc1c(-c2c[nH]c3ncncc23)[nH]c2ccc(C3CCNCC3)cc12 [Example 241, 5-(3-ethyl-5-(piperidin-4-yl)-1H-indol-2-yl)-7H-pyrrolo[2,3-d]pyrimidine] | < 100 | < 100 | 1000 to 50000 |
| CC(C)c1c(-c2ccnc3[nH]ncc23)[nH]c2ccc(C3CCN(Cc4ccc(Oc5ncccn5)cc4)CC3)cc12 [Example 899, 4-(3-isopropyl-5-(1-(4-(pyrimidin-2-yloxy)benzyl)piperidin-4-yl)-1H-indol-2-yl)-1H-pyrazolo[3,4-b]pyridine] | < 100 | < 100 | 100 to 1000 |
| CC(C)c1c(-c2ccnc3[nH]ncc23)[nH]c2ccc(C3CCN(Cc4cnccn4)CC3)cc12 [Example 903, 4-(3-isopropyl-5-(1-(pyrazin-2-ylmethyl)piperidin-4-yl)-1H-indol-2-yl)-1H-pyrazolo[3,4-b]pyridine] | < 100 | < 100 | 1000 to 50000 |
| Cc1nc2cc(-c3[nH]c4ccc(C5CCNCC5)cc4c3C(C)C)cc(C)c2o1 [Example 92, 5-(3-isopropyl-5-(piperidin-4-yl)-1H-indol-2-yl)-2,7-dimethylbenzo[d]oxazole] | < 100 | 100 to 1000 | 1000 to 50000 |
| CC(C)c1c(-c2ccc(C#N)c3ncccc23)[nH]c2ccc(C3CCN(C4COC4)CC3)cc12 [Example 714, 5-(3-isopropyl-5-(1-(oxetan-3-yl)piperidin-4-yl)-1H-indol-2-yl)quinoline-8-carbonitrile] | < 100 | < 100 | > 50000 |
| CNC(=O)CN1CCC(c2ccc3[nH]c(-c4cc(C)c5nnnn5c4)c(C(C)C)c3c2)CC1 [Example 312, 2-(4-(3-isopropyl-2-(8-methyltetrazolo[1,5-a]pyridin-6-yl)-1H-indol-5-yl)piperidin-1-yl)-N-methylacetamide] | < 100 | < 100 | 1000 to 50000 |
| CNC(=O)c1cn2cc(-c3[nH]c4ccc(C5CCN(CC(=O)N(C)C)CC5)cc4c3C(C)C)cc(C)c2n1 [Example 346, 6-(5-(1-(2-(dimethylamino)-2-oxoethyl)piperidin-4-yl)-3-isopropyl-1H-indol-2-yl)-N,8-dimethylimidazo[1,2-a]pyridine-2-carboxamide] | < 100 | < 100 | 1000 to 50000 |
